{"source": "patent US20230226072A1", "about": "(priority 2020, published 2023)", "key": {"[1]": {"test_system": "Influenza A N1H1", "test": "In vivo antiviral efficacy in Balb/c mice, lung virus titer by TCID50 assay", "method": "Mice received a daily MB-dose of 5 mg/kg based on a daily drinking volume of ˜5-6 ml and a body weight of 25-35 g. The control group received drinking water with saccharin but without methylene blue.\nMice were euthanized and lungs were removed on day 3 post challenge with influenza H1N1 virus. These tissue samples were stored at <−60° C. until they were transferred into homogenization tubes containing 1 ml cell medium supplemented with antibiotics. The lungs were homogenized two times at 5000 rpm for twenty seconds with 10 seconds pause between the intervals with a tissue homogenizer. The infectious H1N1 virus titer in homogenized lung samples was determined by a TCID50 assay performed by titration on Madin-Darby Canine Kidney (MDCK) cells as described above."}, "[2]": {"settings": "in vivo; cited from earlier work"}}}
{"smiles": "CN(C)c1ccc2nc3ccc(=[N+](C)C)cc-3sc2c1.[Cl-]", "note": "[methylene blue, [7-(dimethylamino)phenothiazin-3-ylidene]-dimethylazanium; chloride]", "values": [{"measurement": "viricidal efficacy, lung virus titer (TCID50 assay)", "setting": "[1]; prophylactic application, 5 mg/kg daily in drinking water from day 0, challenge day 10, lungs 3 days later", "result": "significant viricidal efficacy"}, {"measurement": "viricidal efficacy, lung virus titer (TCID50 assay)", "setting": "[1]; therapeutic application, 5 mg/kg daily in drinking water from day 11, challenge day 10", "result": "significant viricidal efficacy"}]}
{"smiles": "Cc1cc2nc3c(=O)[nH]c(=O)nc-3n(C[C@H](O)[C@H](O)[C@H](O)CO)c2cc1C", "note": "[riboflavin, 7,8-dimethyl-10-[(2S,3S,4R)-2,3,4,5-tetrahydroxypentyl]benzo[g]pteridine-2,4-dione]", "values": [{"measurement": "initial half-life", "setting": "[2]", "result": 1.4, "unit": "h"}, {"measurement": "terminal half-life", "setting": "[2]", "result": 14, "unit": "h"}]}
